The target in one assay is T1, MEK1 (Homo sapiens, UniProt Q02750).
T1 construct: gene MAP2K1
Put plainly: microscale thermophoresis, labelled recombinant human MEK1. The class given is binding. For orientation: In MST a laser heats a spot of the sample, and binding alters the fluorescence response.

A further assay has as its target T2, MEK2 (Homo sapiens, UniProt P36507).
T2 construct: gene MAP2K2
As to the kind of experiment: microscale thermophoresis, labelled recombinant MEK2. The class given is binding.

As usually defined, the Kd is the equilibrium constant for the complex coming apart.

T2 sequence (P36507 whole entry): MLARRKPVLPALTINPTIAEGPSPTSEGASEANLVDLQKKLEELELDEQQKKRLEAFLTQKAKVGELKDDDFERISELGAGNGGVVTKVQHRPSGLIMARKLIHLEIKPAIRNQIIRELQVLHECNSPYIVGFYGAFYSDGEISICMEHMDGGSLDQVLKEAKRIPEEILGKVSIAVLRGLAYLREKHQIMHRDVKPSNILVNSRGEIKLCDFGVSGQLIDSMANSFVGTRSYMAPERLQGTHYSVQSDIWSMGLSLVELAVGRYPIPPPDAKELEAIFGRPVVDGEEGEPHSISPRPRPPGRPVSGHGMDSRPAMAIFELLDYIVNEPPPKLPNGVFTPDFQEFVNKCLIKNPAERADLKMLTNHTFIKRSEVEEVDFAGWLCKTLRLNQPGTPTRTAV
T1 sequence (Q02750 whole entry): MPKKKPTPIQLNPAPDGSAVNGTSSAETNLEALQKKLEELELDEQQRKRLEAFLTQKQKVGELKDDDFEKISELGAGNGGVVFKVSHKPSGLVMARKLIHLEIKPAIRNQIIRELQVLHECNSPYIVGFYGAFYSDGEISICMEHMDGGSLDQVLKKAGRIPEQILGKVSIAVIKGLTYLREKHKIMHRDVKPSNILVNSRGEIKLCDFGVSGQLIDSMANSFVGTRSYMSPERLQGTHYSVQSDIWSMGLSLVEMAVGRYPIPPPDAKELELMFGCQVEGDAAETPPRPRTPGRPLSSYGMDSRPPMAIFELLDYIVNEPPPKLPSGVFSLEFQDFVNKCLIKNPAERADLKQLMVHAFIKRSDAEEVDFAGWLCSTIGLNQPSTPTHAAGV

For the molecule `C[C@H]1O[C@@H](O[C@@H]2[C@H](O)C[C@@H](O[C@@H]3[C@H](O)C[C@@H](O[C@H]4CC[C@@]5(C)[C@@H](CC[C@H]6[C@H]5C[C@@H](O)[C@]5(C)[C@H](C7=CC(=O)OC7)CC[C@]65O)C4)O[C@@H]3C)O[C@@H]2C)C[C@H](O)[C@@H]1O` [ZINC253504760, 3-[(3S,5S,8S,9R,10S,12R,13S,14S,17S)-3-[(2S,4R,5R,6R)-5-[(2R,4R,5R,6R)-5-[(2S,4S,5S,6R)-4,5-dihydroxy-6-methyloxan-2-yl]oxy-4-hydroxy-6-methyloxan-2-yl]oxy-4-hydroxy-6-methyloxan-2-yl]oxy-12,14-dihydroxy-10,13-dimethyl-1,2,3,4,5,6,7,8,9,11,12,15,16,17-tetradecahydrocyclopenta[a]henanthrene-17-yl]-2H-furan-5-one], the Kd at MEK1 is 500 nM; at MEK2 it was 2200 nM.

For the origin of these results see article PMC10693532, “The cardiac glycoside ZINC253504760 induces parthanatos-type cell death and G2/M arrest via downregulation of MEK1/2 phosphorylation in leukemia cells” (Cell Biology and Toxicology, 2023).
